In patent US20100190832A1, “Mechanism-based inhibitors of transthyretin amyloidosis: studies with biphenyl ethers and structural templates” (NATIONAL INSTITUTE OF IMMUNOLOGY., priority 2008, published 2010):
Where two headings read alike, the source gives them in different places.

How the values were obtained:
[1] = molecular target: T1, TTR (Homo sapiens, UniProt P02766); assay: Time course (kinetics) of fibril formation, turbidity at 340 nm for 3 h; assay type: biochemical; conditions: TTR 7.2 μM, inhibitor 21.6 μM, 37° C., pH 4.4, 3 h
T1 construct: made in house
Description: Time Course of Fibril Formation. The kinetics of inhibition was studied by incubating […] TTR with […] of different inhibitors in 100 µl of 5 mM phosphate buffer pH 7.2 for 30 min in a 96 microwell plate. […] of 0.2 M sodium acetate buffer pH 4.4 containing 1 mM EDTA and 100 mM KCl was added. The difference in turbidity was assessed by measuring the change in absorbance at 340 nm on Tecan GEnios microplate reader using Magellan software. For kinetics, parameters were set for 30 cycles at 37° C. at the interval of 5 min each and 2 min orbital shaking (low speed) between cycles and 10 sec shaking (normal speed) before measurement. All experiments were performed in triplicates. Change in absorbance at 340 nm was plotted against time in the presence and absence of inhibitors initial rate of fibril formation was calculated from the slope by linear fitting of the data.
All experiments were performed three times in triplicates. Change in absorbance (mean of three different experiments) at 340 nm was plotted against time in the presence and absence of inhibitors. Initial rate of fibril form action was calculated from the value of the slope by linear fitting of the change in absorbance at 340 nm as a function of time.

[2] = molecular target: T2, WT-TTR (Homo sapiens, UniProt P02766); assay: Stagnant acid-mediated TTR aggregation (fibril formation) assay, turbidity at 340 nm; assay type: biochemical; conditions: for remaining activity at 7.2 µM / remaining activity at 21.6 µM / remaining activity at 50 µM / remaining activity at 100 µM: 72 h; for remaining activity at 50 µM: read-out: % FF at 50 μM; for remaining activity at 100 µM / inhibition at 100 µM: pH 4.4, compound 100 μM; for remaining activity at 100 µM: read-out: % FF; for inhibition at 100 µM: read-out: % Inhibition
T2 construct: made in house
Description: Stagnant Acid-Mediated TTR Aggregation Assay.
After 1 h, the samples were diluted with 0.5 ml of 200 mM sodium acetate buffer containing 100 mM KCl and 1 mM EDTA. Samples after mild vortexing were incubated at 37° C. for the desired amount of time without stirring to evaluate the efficacy of the inhibitors. The extent of aggregation was probed by turbidity measurements at 340 nm using Tecan GENios microplate reader. […] The extent of TTR fibril formation in the absence of inhibitor was defined to be 100%. […] All experiments were done in triplicate. […] The IC50 was determined by plotting mean of % inhibition vs log and fitted to sigmoid equation:
The experiments were conducted at 25° C. After 1 h, the samples were diluted with 0.5 mL of 200 mM sodium acetate buffer pH 4.4 containing 100 mM KCl and 1 mM EDTA, vortexed, and incubated at 37° C. for 72 h. […] The stoichiometry of the binding of the inhibitors was determined by HPLC as described by Green et al., N. S. Palaninathan, S, L, Sacchettini, J. e. […] Dissociation constant of binding of these compounds to TTR was determined by fluorescence titration, and data were fitted into the Adair equation for two bind mg.

Row | SMILES | remaining activity at 100 µM ([2]; WT-TTR 7.2 μM, pH 4.4, 37° C.) | inhibition at 100 µM ([2]; WT-TTR 7.2 μM, pH 4.4, 37° C.) | also measured
1 | Oc1cc(CCl)ccc1Oc1ccc(Cl)cc1Cl [Compound 3] |  |  | inhibition at 21.6 µM [1]: > 80%; remaining activity at 7.2 µM ([2]; pH 4.4, read-out: % FF 1:1): 5%; remaining activity at 21.6 µM ([2]; pH 4.4, read-out: % FF 1:3): 0%; remaining activity at 50 µM [2]: 0%
2 | COc1cc(CCl)ccc1Oc1ccccc1 [Compound 8, 3-Methoxy-4-phenoxybenzyl chloride] |  |  | inhibition at 21.6 µM [1]: > 80%; IC50 ([2]; 50% reduction in fibril formation, TTR 7.2 μM, pH 4.4, read-out: IC50 ± SE): 1940 ± 90 nM; remaining activity at 50 µM ([2]; biphenyl ether 50 μM, WT-TTR 7.2 μM): 0%; remaining activity at 7.2 µM ([2]; pH 4.4, TTR 7.2 μM, inhibitor 7.2 μM (1:1), pH 4.4, 37° C., no inhibitor = 100%, read-out: % FF 1:1): 25%; remaining activity at 21.6 µM ([2]; pH 4.4, TTR 7.2 μM, inhibitor 21.6 μM (1:3), pH 4.4, 37° C., no inhibitor = 100%, read-out: % FF 1:3): 0%; IC50 ([2]; TTR amyloid formation, 37° C., read-out: IC50): 470 to 3500 nM; IC50 ([2]; Table 3, WT-TTR 7.2 μM, read-out: IC50): 1940 nM
3 | CSC1=NSC2=NC(=O)/C(=C\c3ccc[nH]3)C(=N)N12 [Compound C146-0661] | 202% | 0% | 
4 | O=C1CCCC2=C1C(c1cccc(O)c1)NC(=S)N2 (stereo not drawn) [Compound C157-0040] | 106% | 0% | 
5 | Cc1nc2c(C(=O)NCCC(C)C)cnn2c(O)c1Cc1ccccc1F [Compound C218-0295] | -86.7% | 91.7% | 
6 | Cc1nc2c(C(=O)NCc3ccc(F)cc3)cnn2c(O)c1Cc1ccccc1F [Compound C218-0299] | 46.9% | 53.1% | 
7 | Cc1cc(C(=O)Nc2cc(Cl)ccc2O)no1 [Compound C226-2564] | 96.8% | 3.18% | 
8 | Cc1cc(C(=O)Nc2cccnc2Cl)no1 [Compound C226-2576] | 130% | 0% | 
9 | Oc1ccc(-c2nc3ncccn3c2Nc2ccc(Cl)cc2)cc1 [Compound C239-0727] | 135% | 0% | 
10 | Cc1ccc2nc(-c3ccc(Cl)s3)c(Nc3ccc(Cl)cc3)n2c1 [Compound C239-0730] | 113% | 0% | 
11 | O=c1c2sccc2n(Cc2ccc(F)cc2Cl)c(=O)n1-c1cc(F)ccc1F [Compound C241-0192] | 117% | 0% | 
12 | NN1C(=O)/C(=C\c2ccc(Cl)cc2)NC1=S [Compound C249-0056] | 131% | 0% | 
13 | O=C(CSc1nccn1-c1cccc(Cl)c1)Nc1cccc2ccccc12 [Compound C262-0464] | 122% | 0% | 
14 | Clc1ccc2nc(-c3ccc(Cl)s3)c(NC3CCCCC3)n2c1 [Compound C273-0206] | 138% | 0% | 
15 | Cc1ccn2c(Nc3ccc(F)cc3)c(-c3ccccn3)nc2c1 [Compound C273-0218] | 162% | 0% | 
16 | Cc1ccccc1Nc1c(-c2ccc(O)cc2)nc2ccc(Cl)cn12 [Compound C273-0223] | 130% | 0% | 
17 | Cc1ccccc1Nc1c(-c2ccc(Cl)s2)nc2ccc(Cl)cn12 [Compound C273-0244] | 306% | 0% | 

Row | SMILES | remaining activity at 100 µM ([2]; WT-TTR 7.2 μM, pH 4.4, 37° C.) | inhibition at 100 µM ([2]; WT-TTR 7.2 μM, pH 4.4, 37° C.) | also measured
18 | NC(=O)CSc1ncc(-c2ccc(Cl)cc2)[nH]1 [Compound C290-0041] | 39.2% | 60.8% | 
19 | O=C1OC(c2ccc(Cl)cc2Cl)=N/C1=C\c1cccs1 [Compound K075-5819] | 136% | 0% | 
20 | O=C(O)C1CSC(c2ccc(Cl)cc2)N1 (stereo not drawn) [Compound K085-0001] | 142% | 0% | 
21 | O=C(O)C1CSC(c2ccc([N+](=O)[O-])cc2)N1 (stereo not drawn) [Compound K085-0004] | 119% | 0% | 
22 | O=C(O)C1CSC(c2c(F)cccc2Cl)N1 (stereo not drawn) [Compound K085-0006] | 20.3% | 79.7% | 
23 | COc1ccc(C2NC(C(=O)O)CS2)cc1OC (stereo not drawn) [Compound K085-0007] | 129% | 0% | 
24 | O=C(O)C1CSC(c2ccc(O)cc2)N1 (stereo not drawn) [Compound K085-0008] | 120% | 0% | 
25 | O=C(O)C1CSC(c2ccc(Cl)c(Cl)c2)N1 (stereo not drawn) [Compound K085-0014] | 102% | 0% | 
26 | O=C(O)C1CSC(c2ccc(Cl)cc2Cl)N1 (stereo not drawn) [Compound K085-0018] | 22.3% | 77.7% | 
27 | O=C(O)C1CSC(c2cccnc2)N1 (stereo not drawn) [Compound K085-0021] | 144% | 0% | 
28 | CCCCC1NC(C(=O)O)CS1 (stereo not drawn) [Compound K085-0025] | 128% | 0% | 
29 | Cc1ccc(C2NC(C(=O)O)CS2)cc1 (stereo not drawn) [Compound K085-0026] | 14.3% | 85.7% | 
30 | COc1cc(C2NC(C(=O)O)CS2)ccc1O (stereo not drawn) [Compound K085-0027] | 116% | 0% | 
31 | O=C1OC(c2ccc(Cl)cc2Cl)=N/C1=C/c1ccc(Cl)c(Cl)c1 [Compound K088-1297] | 138% | 0% | 
32 | O=C1OC(/C=C/c2ccc(Cl)cc2Cl)=NC/1=C\c1cccs1 [Compound K088-1892] | 294% | 0% | 
33 | O=c1c2ccccc2nc2sc(Nc3ccc(F)cc3F)nn12 [Compound K284-2958] | -2.03% | 102% | 

Further lines, with some results ahead:

Row | remaining activity at 100 µM ([2]; WT-TTR 7.2 μM, pH 4.4, 37° C.) | inhibition at 100 µM ([2]; WT-TTR 7.2 μM, pH 4.4, 37° C.) | SMILES | also measured
34 | 84.5% | 15.6% | COC(=O)c1sc(=S)n(-c2ccc(Cl)c(Cl)c2)c1N [Compound K286-4369] | 
35 | 60.7% | 39.3% | O=C(NCc1ccco1)c1cc(Sc2cccc(Cl)c2)nc2ccccc12 [Compound K784-7215] | 
36 | 41.8% | 58.2% | O=C(NC1CC1)c1cc(Sc2cccc(Cl)c2)nc2ccccc12 [Compound K784-7224] | 
37 |  | 0% | CCOc1cccc2c1OC(c1cccc(Cl)c1)N1N=C(c3cccs3)CC21 (stereo not drawn) [Compound K805-0132] | 
38 | 0% | 100% | Clc1ccccc1C1CC(c2cccs2)Nc2nnnn21 (stereo not drawn) [Compound K832-3346] | 
39 | 41.9% | 58.1% | CCC(=O)NC(c1ccc2c(c1)OCO2)c1cc(Cl)c2cccnc2c1O (stereo not drawn) [Compound K839-0017] | 
40 | 4.6% | 95.4% | CC(C)C(=O)NC(c1ccccc1)c1ccc2cccnc2c1O (stereo not drawn) [Compound K839-0067] | 
41 | 29.6% | 70.4% | O=C(NC(c1ccccc1)c1cc(Cl)c2cccnc2c1O)c1cccnc1 (stereo not drawn) [Compound K839-0113] | 
42 | 34.7% | 65.3% | COc1cccc(C(=O)NC(c2ccccc2)c2cc(Cl)c3cccnc3c2O)c1 (stereo not drawn) [Compound K839-0116] | 
43 | 72.8% | 27.2% | O=C(NC(c1cccc([N+](=O)[O-])c1)c1cc(Cl)c2cccnc2c1O)c1cccnc1 (stereo not drawn) [Compound K839-0117] | 
44 | 36.7% | 63.3% | O=C(NC(c1ccco1)c1cc(Cl)c2cccnc2c1O)c1cccnc1 (stereo not drawn) [Compound K839-0124] | 
45 | 164% | 0% | CCOC(=O)c1sc(=S)n(-c2ccc(Br)cc2)c1N [Compound R052-0946] | 
46 | 146% | 0% | CCOC(=O)c1sc(=S)n(-c2cccc3ccccc23)c1N [Compound R052-0949] | 
47 | 87.8% | 12.2% | CCOC(=O)c1c(N)sc(C(=O)Nc2cc(C)cc(C)c2)c1C [Compound R052-1596] | 
48 | 58.1% | 41.9% | CCOC(=O)c1c(N)sc(C(=O)NC2CCCCC2)c1C [Compound R052-1597] | 
